This passage reports MIC and IC50 results from patent US10457707B2, “Substituted urea depsipeptide analogs as activators of the CLPP endopeptidase” (priority 2015, dated 2019).

Values after ≈ are worked out from the molar mass of the structure shown. Where two headings read alike, the source gives them in different places. *1 amine or outer side, *2 acyl side, *3 side chain or, on linkers, in order; H or OH if unused. Where a SMILES comes first, the peptide text is derived from it. Bridges are numbered along the chain shown (N, C = ends). [ ]: non-standard residue; d: D form. The star is where a group is joined. ξ: configuration not given here. Phe(3,5-F2) = N[C@@H](Cc1cc(F)cc(F)c1)C(=O)O; NH(1-Me-indolin-5-yl) = CN1CCc2cc(N*)ccc21; Morpholine(3S-CO) = O=C(O)[C@@H]1COCCN1; NH(4-Cl-2-F-phenyl) = Fc1cc(Cl)ccc1N*; Pro(4R-Me) = C[C@H]1CN[C@H](C(=O)O)C1; Hyp = O=C(O)[C@@H]1C[C@@H](O)CN1; NMeT = CN[C@H](C(=O)O)[C@@H](C)O; Heptenoyl(2E) = CCCC/C=C/C(=O)*; ξNMeThr = CNC(C(=O)O)[C@@H](C)O; aThr = C[C@H](O)[C@H](N)C(=O)O; Pip = O=C(O)[C@@H]1CCCCN1; CO = O=C([*:1])[*:2] Some results are limits rather than exact numbers.

What all share (format): cell-based
The test system of data set [1] is Staphylococcus aureus, NRS70. Briefly: Minimal inhibitory concentration assay (microbroth dilution). An outline of the steps:
(§1)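 Broth microdilution per CLSI M7-A7: two-fold serial dilutions of compound in broth (top final concentration 200 μM) were inoculated with ~10^5 cfu/mL bacteria and incubated aerobically overnight at 37 °C. MIC was read visually as the lowest concentration preventing growth.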

Data set [2] deals with Bacillus subtilis, ATCC 23857. The data set is described as above. A digest of the protocol:
as §1

For data set [3], the system named is Staphylococcus aureus, ATCC 29213. The description is as above. The settings on record: ATCC29213, read-out: Minimal Inhibitory Concentrations S. aureus ATCC 29213. A digest of the protocol: as §1
Data set [4] is described as follows: Cytotoxicity assay (CellTiter-Glo cell viability, 72 hours). To be noted: African green monkey. An outline of the steps: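 Vero cells, 5000/well, grown overnight at 37° C, 5% CO2 in DMEM with 10% FBS, then exposed to serial compound dilutions or DMSO for 72 hours. Viability read by CellTiter-Glo luminescence. IC50 from duplicate wells, reported as range over two independent experiments.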

Data set [5] has as its system Streptococcus pyogenes, ATCC 700294. The experiment in a line: Minimal inhibitory concentration assay (microbroth dilution). A digest of the protocol:
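CLSI broth microdilution: two-fold serial compound dilutions in appropriate broth, inoculated and incubated aerobically overnight at 37° C. MIC read visually as lowest concentration preventing bacterial growth.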

[6] abbreviates: Staphylococcus aureus, NRS70; read-out: Minimal Inhibitory Concentrations S. aureus NRS70.
The mark [7] stands for this setting: Bacillus subtilis, ATCC23857; read-out: Minimal Inhibitory Concentrations B. subtilis ATCC 23857.
The mark [8] stands for this setting: Streptococcus pyogenes, ATCC700294; read-out: Minimal Inhibitory Concentrations S. pyogenes ATCC 700294.
Setting [9] is: Staphylococcus aureus, NRS70, read-out: Minimal Inhibitory Concentrations S. aureus NRS70.
Setting [10] is: Bacillus subtilis, ATCC23857, read-out: Minimal Inhibitory Concentrations B. subtilis ATCC 23857.
Setting [11] is: Vero cells, 72 hours, growth inhibition, read-out: Cytotoxicity IC50.
[12] abbreviates: Streptococcus pyogenes, ATCC700294, read-out: Minimal Inhibitory Concentrations S. pyogenes ATCC 700294.

In the case of `C[C@@H]1C[C@H]2C(=O)O[C@@H](C)[C@H](NC(=O)[C@H](Cc3cc(F)cc(F)c3)NC(=O)Nc3ccc(Cl)cc3F)C(=O)N3CCC[C@H]3C(=O)N3CCCC[C@H]3C(=O)N[C@@H](C)C(=O)N2C1` [Compound 307, (S)-2-(3-(4-chloro-2-fluorophenyl)ureido)-3-(3,5-difluorophenyl)-N-((2R,6S,8aS,14aS,20S,21S,23aS)-2,6,21-trimethyl-5,8,14,19,23-pentaoxooctadecahydro-1H,5H,14H,19H-pyrido[2,1-i]dipyrrolo[2,1-c:2′,1′-l][1]oxa[4,7,10,13]tetraazacyclo-hexadecin-20-yl)propanamide] ({NH(4-Cl-2-F-phenyl)-CO}-[Phe(3,5-F2)][aThr]P[Pip]A[Pro(4R-Me)]; ester 2-C), the MIC worked out at 0.039 µM (≈ 0.033 µg/mL) in data set [1] (setting [6]), 0.039 µM (≈ 0.033 µg/mL) in data set [2] (setting [7]), 0.039 µM (≈ 0.033 µg/mL) in data set [3] and 0.156 µM (≈ 0.132 µg/mL) in data set [5] (setting [8]). For the same compound, 9.5 ± 0.8 µM corresponded to half-maximal inhibition in data set [4] (IC50 at 72 h).
With `CCCC/C=C/C(=O)N[C@@H](Cc1cc(F)cc(F)c1)C(=O)N[C@@H]1C(=O)N2CCC[C@H]2C(=O)N(C)[C@@H]([C@@H](C)O)C(=O)N[C@@H](C)C(=O)N2C[C@H](C)C[C@H]2C(=O)O[C@H]1C` [Compound 308, (E)-N—((S)-3-(3,5-difluorophenyl)-1-(((2R,6S,9S,11aS,17S,18S,20aS)-9-((R)-1-hydroxyethyl)-2,6,10,18-tetramethyl-5,8,11,16,20-pentaoxohexadecahydro-1H,5H,16H-dipyrrolo[2,1-c:2′,1′-l][1]oxa[4,7,10,13]tetraazacyclohexadecin-17-yl)amino)-1-oxopropan-2-yl)hept-2-enamide] ({Heptenoyl(2E)}-[Phe(3,5-F2)][aThr]P[NMeT]A[Pro(4R-Me)]; ester 2-C), the MIC in data set [1] (setting [6]) is 0.039 µM (≈ 0.0308 µg/mL); in data set [2] (setting [7]) it was < 0.02 µM; in data set [3], 0.039 µM (≈ 0.0308 µg/mL); in data set [5] (setting [8]), < 0.02 µM. The compound also yielded an IC50 at 72 h in data set [4] of 38.6 ± 1.1 µM.
Turning to `CCCC/C=C/C(=O)N[C@@H](Cc1cc(F)cc(F)c1)C(=O)N[C@@H]1C(=O)N2C[C@H](O)C[C@H]2C(=O)N2CCOC[C@H]2C(=O)N[C@@H](C)C(=O)N2C[C@H](C)C[C@H]2C(=O)O[C@H]1C` [Compound 309, (E)-N—((S)-3-(3,5-difluorophenyl)-1-(((6aS,8R,12S,13S,15aS,17R,21S,23aS)-8-hydroxy-13,17,21-trimethyl-6,11,15,20,23-pentaoxooctadecahydro-6H,11H,15H-[1,4]oxazino[3,4-i]dipyrrolo[2,1-c:2′,1′-l][1]oxa[4,7,10,13]tetraazacyclohexadecin-12-yl)amino)-1-oxopropan-2-yl)hept-2-enamide] ({Heptenoyl(2E)}-[Phe(3,5-F2)][aThr][Hyp][Morpholine(3S-CO)]A[Pro(4R-Me)]; ester 2-C), the MIC was 0.156 µM (≈ 0.125 µg/mL) in data set [1] (setting [6]), 0.156 µM (≈ 0.125 µg/mL) in data set [2] (setting [7]), 0.156 µM (≈ 0.125 µg/mL) in data set [3] and < 0.02 µM in data set [5] (setting [8]). Further, in data set [4], the half-maximal inhibitory concentration (IC50) at 72 h was > 100 µM.
For the compound `C[C@@H]1C[C@H]2C(=O)O[C@@H](C)[C@H](NC(=O)[C@H](Cc3cc(F)cc(F)c3)NC(=O)Nc3ccc4c(c3)CCN4C)C(=O)N3CCC[C@H]3C(=O)N3CCCC[C@H]3C(=O)N[C@@H](C)C(=O)N2C1` [Compound 310, (S)-3-(3,5-difluorophenyl)-2-(3-(1-methylindolin-5-yl)ureido)-N-((2R,6S,8aS,14aS,20S,21S,23aS)-2,6,21-trimethyl-5,8,14,19,23-pentaoxooctadecahydro-1H,5H,14H,19H-pyrido[2,1-i]dipyrrolo[2,1-c:2′,1′-l][1]oxa[4,7,10,13]tetraazacyclo-hexadecin-20-yl)propanamide] ({NH(1-Me-indolin-5-yl)-CO}-[Phe(3,5-F2)][aThr]P[Pip]A[Pro(4R-Me)]; ester 2-C), the MIC was found to be 0.156 µM (≈ 0.132 µg/mL) in data set [1] (setting [9]), 0.078 µM (≈ 0.0662 µg/mL) in data set [2] (setting [10]), 0.078 µM (≈ 0.0662 µg/mL) in data set [3] and 0.156 µM (≈ 0.132 µg/mL) in data set [5] (setting [12]). Moreover, the IC50 at 72 h in data set [4] (setting [11]) stood at 0.4 ± 0.01 µM.
For the compound `C[C@@H]1C[C@H]2C(=O)O[C@@H](C)[C@H](NC(=O)[C@H](Cc3cc(F)cc(F)c3)NC(=O)Nc3ccc4c(c3)CCN4C)C(=O)N3CCC[C@H]3C(=O)N(C)C([C@@H](C)O)C(=O)N[C@@H](C)C(=O)N2C1` (stereo partly drawn) [Compound 311, (S)-3-(3,5-difluorophenyl)-N-((2R,6S,9R,11aS,17S,18S,20aS)-9-((R)-1-hydroxyethyl)-2,6,10,18-tetramethyl-5,8,11,16,20-pentaoxohexadecahydro-1H,5H,16H-dipyrrolo[2,1-c:2′,1′-l][1]oxa[4,7,10,13]tetraazacyclohexadecin-17-yl)-2-(3-(1-methylindolin-5-yl)ureido)propanamide] ({NH(1-Me-indolin-5-yl)-CO}-[Phe(3,5-F2)][aThr]P[ξNMeThr]A[Pro(4R-Me)]; ester 2-C), the MIC in data set [1] (setting [9]) was 0.156 µM (≈ 0.133 µg/mL); in data set [2] (setting [10]), 0.313 µM (≈ 0.267 µg/mL); in data set [3] it was 0.156 µM (≈ 0.133 µg/mL); in data set [5] (setting [12]) it was 0.156 µM (≈ 0.133 µg/mL). In addition, in data set [4] (setting [11]), the 50% inhibitory concentration (IC50) at 72 h was determined as 14.3 ± 0.3 µM.
For the compound `C[C@@H]1C[C@H]2C(=O)O[C@@H](C)[C@H](NC(=O)[C@H](Cc3cc(F)cc(F)c3)NC(=O)Nc3ccc4c(c3)CCN4C)C(=O)N3CCC[C@H]3C(=O)N3CCOC[C@H]3C(=O)N[C@@H](C)C(=O)N2C1` [Compound 312, (S)-3-(3,5-difluorophenyl)-2-(3-(1-methylindolin-5-yl)ureido)-N-((6aS,12S,13S,15aS,17R,21S,23aS)-13,17,21-trimethyl-6,11,15,20,23-pentaoxooctadecahydro-6H,11H,15H-[1,4]oxazino[3,4-i]dipyrrolo[2,1-c:2′,1′-l][1]oxa[4,7,10,13]tetraazacyclo-hexadecin-12-yl)propanamide] ({NH(1-Me-indolin-5-yl)-CO}-[Phe(3,5-F2)][aThr]P[Morpholine(3S-CO)]A[Pro(4R-Me)]; ester 2-C), the MIC stood at 0.078 µM (≈ 0.0664 µg/mL) in data set [1] (setting [9]), 0.313 µM (≈ 0.266 µg/mL) in data set [2] (setting [10]), 0.156 µM (≈ 0.133 µg/mL) in data set [3] and 0.156 µM (≈ 0.133 µg/mL) in data set [5] (setting [12]). Besides, in data set [4] (setting [11]), the half-maximal inhibitory concentration (IC50) at 72 h came out at 2.87 µM.
As for `C[C@@H]1C[C@H]2C(=O)O[C@@H](C)[C@H](NC(=O)[C@H](Cc3cc(F)cc(F)c3)NC(=O)Nc3ccc(Cl)cc3F)C(=O)N3CCC[C@H]3C(=O)N(C)C([C@@H](C)O)C(=O)N[C@@H](C)C(=O)N2C1` (stereo partly drawn) [Compound 313, (S)-2-(3-(4-chloro-2-fluorophenyl)ureido)-3-(3,5-difluorophenyl)-N-((2R,6S,9R,11aS,17S,18S,20aS)-9-((R)-1-hydroxyethyl)-2,6,10,18-tetramethyl-5,8,11,16,20-pentaoxohexadecahydro-1H,5H,16H-dipyrrolo[2,1-c:2′,1′-l][1]oxa[4,7,10,13]tetraazacyclohexadecin-17-yl)propanamide] ({NH(4-Cl-2-F-phenyl)-CO}-[Phe(3,5-F2)][aThr]P[ξNMeThr]A[Pro(4R-Me)]; ester 2-C), the MIC in data set [1] (setting [6]), in data set [2] (setting [7]), in data set [3] and in data set [5] (setting [8]) was < 0.02 µM throughout. The IC50 at 72 h in data set [4] came to 13.5 ± 3.9 µM.
On to `C[C@@H]1C[C@H]2C(=O)O[C@@H](C)[C@H](NC(=O)[C@H](Cc3cc(F)cc(F)c3)NC(=O)Nc3ccc(Cl)cc3F)C(=O)N3CCC[C@H]3C(=O)N3CCOC[C@H]3C(=O)N[C@@H](C)C(=O)N2C1` [Compound 314, (S)-2-(3-(4-chloro-2-fluorophenyl)ureido)-3-(3,5-difluorophenyl)-N-((6aS,12S,13S,15aS,17R,21S,23aS)-13,17,21-trimethyl-6,11,15,20,23-pentaoxooctadecahydro-6H,11H,15H-[1,4]oxazino[3,4-i]dipyrrolo[2,1-c:2′,1′-l][1]oxa[4,7,10,13]tetraazacyclo-hexadecin-12-yl)propanamide] ({NH(4-Cl-2-F-phenyl)-CO}-[Phe(3,5-F2)][aThr]P[Morpholine(3S-CO)]A[Pro(4R-Me)]; ester 2-C), for which the MIC in data set [1] (setting [6]), in data set [2] (setting [7]), in data set [3] and in data set [5] (setting [8]) was < 0.02 µM in each case. In data set [4], this compound registered an IC50 at 72 h of 2.39 ± 0.8 µM.
Regarding `C[C@@H]1C[C@H]2C(=O)O[C@@H](C)[C@H](NC(=O)[C@H](Cc3cc(F)cc(F)c3)NC(=O)Nc3ccc4c(c3)CCN4C)C(=O)N3C[C@H](O)C[C@H]3C(=O)N3CCOC[C@H]3C(=O)N[C@@H](C)C(=O)N2C1` [Compound 315, (S)-3-(3,5-difluorophenyl)-N-((6aS,8R,12S,13S,15aS,17R,21S,23aS)-8-hydroxy-13,17,21-trimethyl-6,11,15,20,23-pentaoxooctadecahydro-6H,11H,15H-[1,4]oxazino[3,4-i]dipyrrolo[2,1-c:2′,1′-l][1]oxa[4,7,10,13]tetraazacyclohexadecin-12-yl)-2-(3-(1-methylindolin-5-yl)ureido)propanamide] ({NH(1-Me-indolin-5-yl)-CO}-[Phe(3,5-F2)][aThr][Hyp][Morpholine(3S-CO)]A[Pro(4R-Me)]; ester 2-C), the MIC in data set [1] (setting [9]) is 5 µM (≈ 4.33 µg/mL); in data set [2] (setting [10]), 20 µM (≈ 17.3 µg/mL); in data set [3] it was 5 µM (≈ 4.33 µg/mL); in data set [5] (setting [12]), 0.625 µM (≈ 0.542 µg/mL). Also, the IC50 at 72 h in data set [4] (setting [11]) is > 100 µM.
